Patent US7935688B2, “Vitamin D-like compound” (Chugai Seiyaku Kabushiki Kaisha, priority 2005, dated 2011)

Key:
[1] = test system: osteocalcin production in MG-63 cells; experiment: Osteocalcin production in MG-63 cells (Gla-type Osteocalcin EIA); type: cell-based, human; settings: (EC50 value of 1,25(OH)2D3/EC50 value of each compound)×100; eight hours exposure, then four days culture
Protocol: mg-63 was obtained from Institute for Fermentation, Osaka as a human osteoblast-like cell line. MG-63 cells were maintained and cultured in a MEM medium (Minimum essential medium; pH 7.0; Invitrogen Corporation, Carlsbad, Calif., USA) containing 5% fetal bovine serum (FBS; HyClone, Logan, Utah, USA).
MG-63 cells were adjusted to a density of 4.0×10^4 cells/mL, plated in a 96-well plate at 200 μL per well, and cultured under conditions of 37° C. and 5% carbon dioxide for 24 hours.
After removing the medium, MEM containing 5% charcoal/dextran treated FBS (DCC-FBS; Hyclone, Logan, Utah, USA) was added at 180 μL/well. The test substance (1.0×10^−3 mol/L) was diluted with dimethyl sulfoxide (DMSO) to 1.0×10^−4 mol/L, 1.0×10^−5 mol/L, 1.0×10^−6 mol/L, 1.0×10^−7 mol/L and 1.0×10^−8 mol/L. 1,25(OH)2D3 was used as a positive control. Like the test substance, 1,25(OH)2D3 was diluted with DMSO. 0.02 mL of the positive control and the test substance diluted 100-fold with MEM containing 5% DCC-FCS was added to each well of the 96-well plate, so that the final drug concentration was 1.0×10^−6 mol/L to 1.0×10^−11 mol/L. Thereafter, the cells were cultured under conditions of 37° C. and 5% carbon dioxide for eight hours.
After culturing for eight hours, the medium was removed, and MEM containing 5% DCC-FBS was added at 0.2 mL per well. The cells were cultured under conditions of 37° C. and 5% carbon dioxide for four days, and the medium was recovered. The medium was stored at −80° C. until osteocalcin measurement.
The Gla-type Osteocalcin EIA kit (Takara Bio Inc., Tokyo, Japan) was used for measurement of osteocalcin. Measurement was carried out using a microplate reader (Model 3550, Bio-Rad Laboratories, Inc., Hercules, Calif., USA) at a wavelength of 450 nm, and the results were analyzed by Microplate Manager III (Bio-Rad Laboratories, Inc., ver. 1.57).
The median effective concentration (EC50) was calculated from the osteocalcin concentration. Potency of induction of each compound was calculated as a ratio of EC50 of 1,25(OH)2D3 to EC50 of the compound. The relation between diseases and induction of osteocalcin production is described in Lancet (1984 May 19), 1 (8386), 1091-3; Steroids 66, 159-170 (2001); and Journal of Steroid Biochemistry & Molecular Biology 89-90, 269-271 (2004), for example.
The osteocalcin production level in MG-63 cells (%) was calculated by the formula: (EC50 value of 1,25(OH)2D3/EC50 value of each compound)×100.

[2] = test system: Sprague-Dawley female rats subjected to ovariectomy (OVX); experiment: Effect of increasing bone density in ovariectomized rats (dual X-ray bone densitometry); type: in vivo, rat; settings: forcibly orally, five times per week, pathological control group (vehicle) = 100%
Protocol: The compound of the present invention was adjusted to each concentration using middle chain triglyceride (MCT) as a base. The adjusted solution was stored under shading at 4° C. until use.
Seven-week-old Sprague-Dawley (Crj:CD(SD)) female rats (Charles River Laboratories Japan, Inc.) were preliminarily bred for one week in an environment at a room temperature of 20 to 26° C., at a humidity of 35 to 75% and with an air change of 10 times or more per hour. The rats were allowed to freely take tap water and CE-2 (CLEA Japan, Inc.) as a feed.
After preliminary breeding, the animals were subjected to ovariectomy (OVX) and divided into groups (eight animals per group) on the day after the operation. Only MCT as a base was forcibly orally administered to the sham operation group (sham) and the pathological control group (OVX-vehicle) at a dose of 1 mL/kg (five times per week). The compound of the present invention was also forcibly orally administered at the same dose five times per week.
The animals were bred in a metabolic cage and urine was collected for 24 hours after the final administration. Blood was collected from the abdominal aorta under ether anesthesia for 24 hours after the final administration. The blood was allowed to stand at room temperature for 30 minutes and then centrifuged to provide serum. The femur and lumbar spine were collected and stored in 70% ethanol until bone density measurement.
The bone density of the femur and the second to fifth lumbar spines of the isolated lumbar spines was measured by the dual X-ray bone densitometry system DCS-600-EX (ALOKA). The distal femur bone density was measured for three […] regions out of 10 regions of the femur equally divided in length. The bone density in each site was described based on the bone density of the pathological control group (vehicle group) in each experiment as 100%.
The effects of the compounds of the present invention on the lumbar spine bone density are shown in Table 2 as an example of the obtained results.

Structure (SMILES) | Osteocalcin production level in MG-63 cells (%) [1] | also measured
CCC(CC)(c1ccc(-c2cncc(CC(=O)O)c2)cc1)c1ccc(CCC2(O)CCCCC2)c(C)c1 [Example 149, {5-[4-(1-ethyl-1-{4-[2-(1-hydroxy-cyclohexyl)-ethyl]-3-methyl-phenyl}-propyl)-phenyl]-pyridin-3-yl}-acetic Acid] | 1305% | Lumbar spine bone density (%) ([2]; 0.075 μg/kg): 111.40%; Lumbar spine bone density (%) ([2]; 0.15 μg/kg): 116.00%
CCC(O)(/C=C/c1ccc(C(CC)(CC)c2ccc(-c3ccc(CC(=O)O)cn3)c(C)c2)cc1C)CC [Example 81, [6-(4-{1-ethyl-1-[4-((E)-3-ethyl-3-hydroxy-1-pentenyl)-3-methyl-phenyl]-propyl}-2-methyl-phenyl)-pyridin-3-yl]-acetic Acid] | 652% | Lumbar spine bone density (%) ([2]; 0.01 μg/kg): 115.66%; Lumbar spine bone density (%) ([2]; 0.02 μg/kg): 115.66%
CCC(CC)(c1ccc(/C=C/C2(O)CCCCC2)c(C)c1)c1ccc(-c2cc(Cl)ccc2CC(=O)O)c(C)c1 [Example 89, [5-chloro-4′-(1-ethyl-1-{4-[(E)-2-(1-hydroxy-cyclohexyl)-vinyl]-3-methyl-phenyl}-propyl)-2′-methyl-biphenyl-2-yl]-acetic Acid] | – | Lumbar spine bone density (%) ([2]; 1.25 μg/kg): 109.24%; Lumbar spine bone density (%) ([2]; 2.5 μg/kg): 121.37%
CCC(CC)(c1ccc(/C=C/C(O)(C(F)(F)F)C(F)(F)F)c(C)c1)c1ccc(-c2cccc(CC(=O)O)c2)c(C)c1 [Example 71, (4′-{1-ethyl-1-[3-methyl-4-((E)-4,4,4-trifluoro-3-hydroxy-3-trifluoromethyl-1-butenyl)-phenyl]-propyl}-2′-methyl-biphenyl-3-yl)-acetic Acid] | 746% | Lumbar spine bone density (%) ([2]; 0.025 μg/kg): 110.58%; Lumbar spine bone density (%) ([2]; 0.05 μg/kg): 115.09%
CCC(CC)(c1ccc(/C=C/C(O)(C(F)(F)F)C(F)(F)F)c(C)c1)c1ccc(-c2nc(CC(=O)O)cs2)c(C)c1 [Example 76, [2-(4-{1-ethyl-1-[3-methyl-4-((E)-4,4,4-trifluoro-3-hydroxy-3-trifluoromethyl-1-butenyl)-phenyl]-propyl}-2-methyl-phenyl)-thiazol-4-yl]-acetic Acid] | 407% | Lumbar spine bone density (%) ([2]; 0.015 μg/kg): 110.22%; Lumbar spine bone density (%) ([2]; 0.03 μg/kg): 111.00%
CCC(CC)(c1ccc(/C=C/C(O)(C(F)(F)F)C(F)(F)F)c(C)c1)c1ccc(-c2cncc(CC(=O)O)c2)c(C)c1 [Example 75, [5-(4-{1-ethyl-1-[3-methyl-4-((E)-4,4,4-trifluoro-3-hydroxy-3-trifluoromethyl-1-butenyl)-phenyl]-propyl}-2-methyl-phenyl)-pyridin-3-yl]-acetic Acid] | 1283% | –
C=C1/C(=C\C=C2/CCC[C@]3(C)[C@@H]([C@H](C)CCCC(C)(C)O)CC[C@@H]23)C[C@@H](O)C[C@@H]1O [1,25(OH)2D3, 1α,25-dihydroxyvitamin D3, reference compound] | 100% | –
CCC(CC)(c1ccc(/C=C/C2(O)CCCC2)c(C)c1)c1ccc(-c2ccc(CC(=O)O)cn2)c(C)c1 [Example 85, {6-[4-(1-ethyl-1-{4-[(E)-2-(1-hydroxy-cyclopentyl)-vinyl]-3-methyl-phenyl}-propyl)-2-methyl-phenyl]-pyridin-3-yl}-acetic Acid] | 765% | –
CCC(CC)(c1ccc(/C=C/C2(O)CCCCC2)c(C)c1)c1ccc(-c2ccc(CC(=O)O)cn2)c(C)c1 [Example 91, {6-[4-(1-ethyl-1-{4-[(E)-2-(1-hydroxy-cyclohexyl)-vinyl]-3-methyl-phenyl}-propyl)-2-methyl-phenyl]-pyridin-3-yl}-acetic Acid] | 1074% | –
CCC(CC)(c1ccc(C#CC(O)(C(F)(F)F)C(F)(F)F)c(C)c1)c1ccc(-c2cncc(CC(=O)O)c2)c(C)c1 [Example 80, [5-(4-{1-ethyl-1-[3-methyl-4-(4,4,4-trifluoro-3-hydroxy-3-trifluoromethyl-1-butynyl)-phenyl]-propyl}-2-methyl-phenyl)-pyridin-3-yl]-acetic Acid] | – | Lumbar spine bone density (%) ([2]; 0.05 μg/kg): 110.75%; Lumbar spine bone density (%) ([2]; 0.1 μg/kg): 116.68%
CCC(CC)(c1ccc(/C=C/C(O)(C(F)(F)F)C(F)(F)F)c(C)c1)c1ccc(-c2ccc(CC(=O)O)cn2)c(C)c1 [Example 74, [6-(4-{1-ethyl-1-[3-methyl-4-((E)-4,4,4-trifluoro-3-hydroxy-3-trifluoromethyl-1-butenyl)-phenyl]-propyl}-2-methyl-phenyl)-pyridin-3-yl]-acetic Acid] | 1848% | –
CCC(CC)(c1ccc(-c2cncc(CC(=O)O)c2)cc1)c1ccc(OCC(O)C(C)(C)C)c(C)c1 (centres unmarked) [Example 146, [5-(4-{1-ethyl-1-[4-(2-hydroxy-3,3-dimethyl-butoxy)-3-methyl-phenyl]-propyl}-phenyl)-pyridin-3-yl]-acetic Acid] | 3721% | –
CCC(CC)(c1ccc(C#CC2(O)CCCCC2)c(C)c1)c1ccc(-c2ccc(CC(=O)O)c(F)c2)c(C)c1 [Example 97, (4′-{1-ethyl-1-[4-(1-hydroxy-cyclohexylethynyl)-3-methyl-phenyl]-propyl}-3-fluoro-2′-methyl-biphenyl-4-yl)-acetic Acid] | 533% | –
CCC(CC)(c1ccc(OCC(O)C(C)(C)C)c(C)c1)c1ccc(-c2ccc(CC(=O)O)cc2)c(C)c1 (centres unmarked) [Example 51, (4′-{1-ethyl-1-[4-(2-hydroxy-3,3-dimethyl-butoxy)-3-methyl-phenyl]-propyl}-2′-methyl-biphenyl-4-yl)-acetic Acid] | 650% | –
CCC(CC)(c1ccc(/C=C/C2(O)CCCCC2)c(C)c1)c1ccc(-c2ccc(CC(=O)O)c(Cl)c2)c(C)c1 [Example 90, [3-chloro-4′-(1-ethyl-1-{4-[(E)-2-(1-hydroxy-cyclohexyl)-vinyl]-3-methyl-phenyl}-propyl)-2′-methyl-biphenyl-4-yl]-acetic Acid] | 1604% | –
CCC(CC)(c1ccc(C#CC2(O)CCCC2)c(C)c1)c1ccc(-c2ccc(CC(=O)O)c(F)c2)c(C)c1 [Example 93, (4′-{1-ethyl-1-[4-(1-hydroxy-cyclopentylethynyl)-3-methyl-phenyl]-propyl}-3-fluoro-2′-methyl-biphenyl-4-yl)-acetic Acid] | 487% | –
